What was measured:
STEME [1] = assay: Pre-emergence action against STEME, 1280 g/ha; assay type: in vivo, Stellaria media; settings: scored visually after about 3 weeks vs untreated controls (100% = plants have died)
From the text: (§1) 1. Pre-Emergence Herbicidal Effect and Crop Plant Compatibility a) Seeds of mono- and dicotyledonous weed plants are placed in plastic pots in sandy loam soil (doubly sown with one species each of mono- or dicotyledonous weed plants per pot) and covered with soil. The compounds of the invention, formulated in the form of wettable powders (WP) or as emulsion concentrates (EC), are then applied onto the surface of the covering soil as aqueous suspension or emulsion with addition of 0.5% additive at a water application rate equivalent to 600 litres per hectare. After the treatment, the pots are placed in a greenhouse and kept under good growth conditions for the trial plants. After about 3 weeks, the effect of the preparations is scored visually in comparison with untreated controls as percentages. For example, 100% activity=the plants have died, 0% activity=like control plants. 1. Pre-Emergence Effectiveness Tables 1 to 12 below show the effects of selected compounds of the general formula (I) according to Tables 1 and 2 on various harmful plants and at an application rate corresponding to 1280 g/ha, which were obtained by the experimental procedure mentioned above.

VERPE [2] = assay: Pre-emergence action against VERPE, 1280 g/ha; assay type: in vivo, Veronica persica; settings: scored visually after about 3 weeks vs untreated controls (100% = plants have died)
From the text: as §1

MATIN [3] = assay: Post-emergence action against MATIN, 1.28 kg/ha; assay type: in vivo, Tripleurospermum inodorum (Matricaria inodora); settings: dosage 1280 g/ha, visual rating about 3 weeks after treatment vs untreated controls (100% = plants died)
Procedure: (§2) • a) Seeds of mono- and dicotyledonous weed plants are placed in plastic pots in sandy loam soil (twin sowing with one species each of mono- or dicotyledonous weed plants per pot), covered with soil and cultivated in a greenhouse under controlled growth conditions. 2 to 3 weeks after sowing, the test plants are treated at the one-leaf stage. The compounds of the invention, formulated in the form of wettable powders (WP) or as emulsion concentrates (EC), are applied to the green parts of the plants as aqueous suspension or emulsion with addition of 0.5% additive at a water application rate equivalent to 600 litres per hectare. After the test plants have been kept in the greenhouse under optimum growth conditions for about 3 weeks, the activity of the preparations is rated visually in comparison to untreated controls. For example, 100% activity=the plants have died, 0% activity=like control plants. As shown by the results, compounds of the general formula (I) of the invention, in post-emergence treatment, have very good herbicidal efficacy (90% to 100% herbicidal action) against harmful plants such as Abutilon theophrasti, Digitaria sanguinalis, Echinochloa crus-galli, Matricaria inodora, Poa annua, at an application rate of 1.28 kg of active substance per hectare.

ECHCG [4] = assay: Post-emergence action against ECHCG, 1.28 kg/ha; assay type: in vivo, Echinochloa crus-galli; settings: dosage 1280 g/ha, visual rating about 3 weeks after treatment vs untreated controls
Procedure: as §2

POAAN [5] = assay: Pre-emergence action against POAAN, 1280 g/ha; assay type: in vivo, Poa annua; settings: visual scoring after about 3 weeks vs untreated controls, 100% = plants have died, 0% = like control plants
From the text: as §1

AMARE [6] = assay: Post-emergence action against AMARE, 1.28 kg/ha; assay type: in vivo, Amaranthus retroflexus; settings: dosage 1280 g/ha, visual rating about 3 weeks after treatment vs untreated controls (100% = plants died)
Procedure: as §2

AMARE [7] = assay: Pre-emergence action against AMARE, 1280 g/ha; assay type: in vivo, Amaranthus retroflexus; settings: scored visually after about 3 weeks vs untreated controls (100% = plants have died)
From the text: as §1

ABUTH = assay: Post-emergence action against ABUTH, 1.28 kg/ha; assay type: in vivo, Abutilon theophrasti; settings: dosage 1280 g/ha, visual rating about 3 weeks after treatment vs untreated controls (100% = plants died)
Procedure: as §2

MATIN [8] = assay: Pre-emergence action against MATIN, 1280 g/ha; assay type: in vivo, Tripleurospermum inodorum (Matricaria inodora); settings: scored visually after about 3 weeks vs untreated controls (100% = plants have died)
From the text: as §1

VERPE [9] = assay: Post-emergence action against VERPE, 1.28 kg/ha; assay type: in vivo, Veronica persica; settings: dosage 1280 g/ha, visual rating about 3 weeks after treatment vs untreated controls (100% = plants died)
Procedure: as §2

ECHCG [10] = assay: Pre-emergence action against ECHCG, 1280 g/ha; assay type: in vivo, Echinochloa crus-galli; settings: visual scoring after about 3 weeks vs untreated controls, 100% = plants have died, 0% = like control plants
From the text: as §1

DIGSA [11] = assay: Pre-emergence action against DIGSA, 1280 g/ha; assay type: in vivo, Digitaria sanguinalis; settings: visual scoring after about 3 weeks vs untreated controls, 100% = plants have died, 0% = like control plants
From the text: as §1

LOLRI = assay: Pre-emergence action against LOLRI, 1280 g/ha; assay type: in vivo, Lolium rigidum; settings: visual scoring after about 3 weeks vs untreated controls, 100% = plants have died, 0% = like control plants
From the text: as §1

POAAN [12] = assay: Post-emergence action against POAAN, 1.28 kg/ha; assay type: in vivo, Poa annua; settings: dosage 1280 g/ha, visual rating about 3 weeks after treatment vs untreated controls
Procedure: as §2

SETVI = assay: Pre-emergence action against SETVI, 1280 g/ha; assay type: in vivo, Setaria viridis; settings: visual scoring after about 3 weeks vs untreated controls, 100% = plants have died, 0% = like control plants
From the text: as §1

VIOTR = assay: Pre-emergence action at 320 g/ha against VIOTR; assay type: in vivo, Viola tricolor; settings: dosage 320 g/ha
From the text: (§3) b) Seeds of monocotyledonous and dicotyledonous weed plants and crop plants are placed in plastic or organic planting pots and covered with soil. The compounds of the invention, formulated in the form of wettable powders (WP) or as emulsion concentrates (EC), are then applied onto the surface of the covering soil as aqueous suspension or emulsion with addition of 0.5% additive at a water application rate of 600 l/ha (converted). After the treatment, the pots are placed in a greenhouse and kept under good growth conditions for the trial plants. After about 3 weeks, the effect of the preparations is scored visually in comparison with untreated controls as percentages. For example, 100% activity=the plants have died, 0% activity=like control plants. Tables 13 to 26 below show the effects of selected compounds of the general formula (I) on various harmful plants and at an application rate corresponding to 320 g/ha, which were obtained by the experimental procedure mentioned above.

ALOMY [13] = assay: Pre-emergence action against ALOMY, 1280 g/ha; assay type: in vivo, Alopecurus myosuroides; settings: visual scoring after about 3 weeks vs untreated controls, 100% = plants have died, 0% = like control plants
From the text: as §1

ALOMY [14] = assay: Post-emergence action against ALOMY, 1.28 kg/ha; assay type: in vivo, Alopecurus myosuroides; settings: dosage 1280 g/ha, visual rating about 3 weeks after treatment vs untreated controls
Procedure: as §2

DIGSA [15] = assay: Post-emergence action against DIGSA, 1.28 kg/ha; assay type: in vivo, Digitaria sanguinalis; settings: dosage 1280 g/ha, visual rating about 3 weeks after treatment vs untreated controls
Procedure: as §2

POLCO = assay: Pre-emergence action at 320 g/ha against POLCO; assay type: in vivo, Fallopia convolvulus (Polygonum convolvulus); settings: visual scoring after about 3 weeks vs untreated controls
From the text: as §3

AMARE [16] = assay: Pre-emergence action at 320 g/ha against AMARE; assay type: in vivo, Amaranthus retroflexus; settings: visual scoring after about 3 weeks vs untreated controls
From the text: as §3

ALOMY [17] = assay: Pre-emergence action at 320 g/ha against ALOMY; assay type: in vivo, Alopecurus myosuroides; settings: scored visually after about 3 weeks vs untreated controls (100% = plants have died)
From the text: as §3

STEME [18] = assay: Post-emergence action against STEME, 1.28 kg/ha; assay type: in vivo, Stellaria media; settings: dosage 1280 g/ha, visual rating about 3 weeks after treatment vs untreated controls (100% = plants died)
Procedure: as §2

SMILES	Pre-emergence action against STEME (STEME [1])	Pre-emergence action against VERPE (VERPE [2])	Post-emergence action against MATIN (MATIN [3])	Pre-emergence action against POAAN (POAAN [5])	Post-emergence action against AMARE (AMARE [6])	Pre-emergence action against AMARE (AMARE [7])	Pre-emergence action against MATIN (MATIN [8])	Post-emergence action against VERPE (VERPE [9])	Pre-emergence action against ECHCG (ECHCG [10])	Pre-emergence action against DIGSA (DIGSA [11])	Pre-emergence action against LOLRI (LOLRI)	Post-emergence action against POAAN (POAAN [12])	Pre-emergence action against SETVI (SETVI)	Pre-emergence action against ALOMY (ALOMY [13])	Post-emergence action against ALOMY (ALOMY [14])	Post-emergence action against DIGSA (DIGSA [15])	Post-emergence action against STEME (STEME [18])	further results
O=C(O)COc1nn(-c2ccccc2F)c(-c2cnccn2)c1Br [Example I-003]	100%	90%	90%	100%	100%	90%	90%	90%	90%	90%	90%	100%	90%	–	–	–	–	Post-emergence action against ECHCG (ECHCG [4]): 90%; Post-emergence action against ABUTH (ABUTH): 90%
COC(=O)C1CCCN(C(=O)COc2nn(-c3ccccc3F)c(-c3ccc(F)nc3)c2Br)C1 (stereo not drawn) [Example X-018]	–	–	–	–	–	–	–	–	–	–	–	–	–	–	–	–	–	Pre-emergence action against VIOTR in % (VIOTR): 90%
O=C(O)C1CCCN(C(=O)COc2nn(-c3ccccc3F)c(-c3cncc(F)c3)c2Br)C1 (stereo not drawn) [Example X-033]	90%	90%	100%	100%	100%	90%	90%	100%	–	90%	–	100%	90%	90%	100%	90%	–	–
CONC(=O)COc1nn(-c2ccccc2F)c(-c2ccc(F)cn2)c1Br [II-003]	90%	–	90%	100%	–	100%	100%	100%	100%	100%	100%	100%	100%	–	100%	–	–	Post-emergence action against ABUTH (ABUTH): 90%
CCOC(=O)COc1nn(-c2ccccc2F)c(-c2ccc([S+](C)[O-])nc2)c1Br (stereo not drawn) [VII-044]	–	–	–	–	–	–	–	–	–	–	–	–	–	–	–	–	–	Pre-emergence action against POLCO in % (POLCO): 100%; Pre-emergence action against AMARE in % (AMARE [16]): 90%; Pre-emergence action against VIOTR in % (VIOTR): 100%; Pre-emergence action at 320 g/ha against ALOMY in % (ALOMY [17]): 90%
CSc1ccc(-c2c(Br)c(OCC(=O)O)nn2-c2ccccc2F)cn1 [VII-047]	–	–	–	–	–	–	–	–	–	–	–	–	–	–	–	–	–	Pre-emergence action against AMARE in % (AMARE [16]): 90%
COC(=O)COc1nn(-c2cc(F)ccc2F)c(-c2ccc(F)nc2)c1C#N [VII-063]	100%	100%	90%	100%	100%	100%	90%	90%	–	100%	100%	100%	100%	100%	100%	–	100%	–
COC(=O)COc1nn(-c2cc(F)ccc2F)c(-c2ccnc(F)c2)c1C#N [VIII-008]	100%	100%	90%	100%	90%	100%	100%	90%	100%	100%	100%	100%	100%	–	100%	90%	90%	–
CS(=O)(=O)NC(=O)COc1nn(-c2ccccc2F)c(-c2ccnc(F)c2)c1Br [VIII-012]	–	100%	100%	100%	100%	100%	100%	90%	100%	100%	100%	100%	100%	100%	100%	100%	90%	Post-emergence action against ECHCG (ECHCG [4]): 100%

— patent US12180187B2, “1-phenyl-5-azinylpyrazolyl-3-oxyalkyl acids and their use for controlling unwanted plant growth” (BAYER AKTIENGESELLSCHAFT, priority 2019, dated 2024)
